# Assay results as given in ChEMBL document CHEMBL1201862, “PubChem BioAssay data set” (2004).
# Calls of active or inactive are those of the source.
# Legend:
# [1] = molecular target: T1, Botulinum neurotoxin type A (Clostridium botulinum (strain Hall / ATCC 3502 / NCTC 13319 / Type A), UniProt P0DPI1); assay: High-throughput multiplex microsphere dose response for inhibitors of toxin protease, specifically Botulinum neurotoxin light chain A protease, compounds from Cherry Pick 01.; format: functional; settings: read-out: EC50_MICROM
# T1 sequence (P0DPI1 2-448 limits assumed): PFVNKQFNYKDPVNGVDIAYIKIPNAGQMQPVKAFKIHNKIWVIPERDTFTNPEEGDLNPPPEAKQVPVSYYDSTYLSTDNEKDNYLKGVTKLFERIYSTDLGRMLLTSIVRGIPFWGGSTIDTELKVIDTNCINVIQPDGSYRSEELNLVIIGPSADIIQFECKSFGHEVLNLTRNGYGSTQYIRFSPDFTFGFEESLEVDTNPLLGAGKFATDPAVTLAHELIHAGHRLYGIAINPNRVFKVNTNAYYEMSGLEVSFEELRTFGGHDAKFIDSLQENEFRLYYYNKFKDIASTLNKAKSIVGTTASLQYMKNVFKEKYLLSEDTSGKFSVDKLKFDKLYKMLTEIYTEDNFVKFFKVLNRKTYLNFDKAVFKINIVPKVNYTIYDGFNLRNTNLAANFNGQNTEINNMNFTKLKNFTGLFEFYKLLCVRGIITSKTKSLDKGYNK
# [2] = molecular target: T1, Botulinum neurotoxin type A; assay: High-throughput multiplex microsphere dose response for inhibitors of toxin protease, specifically Botulinum neurotoxin light chain A protease, compounds from Powder Set 01.; format: functional, Clostridium botulinum A str. ATCC 3502; settings: read-out: EC50_MICROM
# [3] = molecular target: T1, Botulinum neurotoxin type A; assay: Confirmatory FRET assay using full length substrates for Botulinum neurotoxin light chain A protease, with Powder Set01.; format: functional
# Lethal factor = Lethal factor (Bacillus anthracis, UniProt P15917); assay: High-throughput multiplex microsphere dose response for inhibitors of toxin protease, specifically Lethal Factor protease, compounds from Powder Set 01.; format: functional, Bacillus anthracis str. A2012; settings: read-out: EC50_MICROM
# [4] = molecular target: MAP kinase-activated protein kinase 2 (Homo sapiens, UniProt P49137); format: functional;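 note: measured as one member of a kinome-wide kinase panel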
# Misshapen-like kinase 1 = Misshapen-like kinase 1 (Homo sapiens, UniProt Q8N4C8); format: functional;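 note: kinome panel screen with MINK as the panel member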
# Cytochrome P450 3A4 = Cytochrome P450 3A4 (Homo sapiens, UniProt P08684); settings: Potency;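 note: confirmatory qHTS run detecting inhibitors and substrates of CYP3A4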
# [5] = molecular target: Mitogen-activated protein kinase kinase kinase kinase 4 (Homo sapiens, UniProt O95819); format: functional
# Mitogen-activated protein kinase kinase kinase kinase 4, sequence (O95819 whole entry): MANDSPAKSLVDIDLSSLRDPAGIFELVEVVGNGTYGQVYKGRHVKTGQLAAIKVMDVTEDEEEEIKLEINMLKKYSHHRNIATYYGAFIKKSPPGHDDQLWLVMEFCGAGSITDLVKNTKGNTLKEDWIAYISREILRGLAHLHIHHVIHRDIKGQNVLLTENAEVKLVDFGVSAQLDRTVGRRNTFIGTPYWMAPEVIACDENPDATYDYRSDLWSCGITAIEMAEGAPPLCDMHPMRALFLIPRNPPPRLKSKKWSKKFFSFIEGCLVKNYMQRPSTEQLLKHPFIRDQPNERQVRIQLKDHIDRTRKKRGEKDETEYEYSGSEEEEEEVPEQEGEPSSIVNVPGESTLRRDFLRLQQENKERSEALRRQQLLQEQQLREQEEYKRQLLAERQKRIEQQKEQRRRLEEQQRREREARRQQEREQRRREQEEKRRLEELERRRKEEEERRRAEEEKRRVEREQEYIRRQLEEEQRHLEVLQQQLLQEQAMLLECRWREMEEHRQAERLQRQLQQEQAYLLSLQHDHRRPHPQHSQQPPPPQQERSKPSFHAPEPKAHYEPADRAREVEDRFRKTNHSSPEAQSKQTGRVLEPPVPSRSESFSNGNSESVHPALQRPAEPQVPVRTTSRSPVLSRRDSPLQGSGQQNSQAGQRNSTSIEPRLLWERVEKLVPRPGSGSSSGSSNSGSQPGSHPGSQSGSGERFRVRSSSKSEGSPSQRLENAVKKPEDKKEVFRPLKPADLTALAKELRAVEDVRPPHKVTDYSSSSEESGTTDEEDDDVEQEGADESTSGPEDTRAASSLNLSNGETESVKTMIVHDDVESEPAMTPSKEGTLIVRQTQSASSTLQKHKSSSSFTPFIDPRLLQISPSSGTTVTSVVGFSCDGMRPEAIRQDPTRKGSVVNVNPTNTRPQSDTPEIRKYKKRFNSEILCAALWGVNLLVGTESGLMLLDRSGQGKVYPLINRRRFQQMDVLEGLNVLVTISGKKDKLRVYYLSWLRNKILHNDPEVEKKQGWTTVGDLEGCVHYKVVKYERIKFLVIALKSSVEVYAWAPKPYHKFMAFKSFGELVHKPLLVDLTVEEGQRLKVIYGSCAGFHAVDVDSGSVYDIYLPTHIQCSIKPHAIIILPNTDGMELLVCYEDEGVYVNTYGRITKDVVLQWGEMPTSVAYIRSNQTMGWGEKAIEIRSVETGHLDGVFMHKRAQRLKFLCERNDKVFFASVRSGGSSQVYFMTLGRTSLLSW
# [6] = molecular target: Serine/threonine-protein kinase pim-3 (Homo sapiens, UniProt Q86V86); format: functional;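 note: value obtained as one member of a broad kinase panel profiling effort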
# [7] = molecular target: Cyclin-dependent kinase 1 (Homo sapiens, UniProt P06493); format: functional;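 note: Kinome-wide panel profiling, with the target listed as panel member CDC2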
# [8] = molecular target: Protein kinase C gamma type (Homo sapiens, UniProt P05129); format: functional
# [9] = molecular target: Lymphokine-activated killer T-cell-originated protein kinase (Homo sapiens, UniProt Q96KB5); format: functional;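 note: value comes from a kinase panel screen in which TOPK was one of the panel members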
# Lymphokine-activated killer T-cell-originated protein kinase, sequence (Q96KB5 whole entry): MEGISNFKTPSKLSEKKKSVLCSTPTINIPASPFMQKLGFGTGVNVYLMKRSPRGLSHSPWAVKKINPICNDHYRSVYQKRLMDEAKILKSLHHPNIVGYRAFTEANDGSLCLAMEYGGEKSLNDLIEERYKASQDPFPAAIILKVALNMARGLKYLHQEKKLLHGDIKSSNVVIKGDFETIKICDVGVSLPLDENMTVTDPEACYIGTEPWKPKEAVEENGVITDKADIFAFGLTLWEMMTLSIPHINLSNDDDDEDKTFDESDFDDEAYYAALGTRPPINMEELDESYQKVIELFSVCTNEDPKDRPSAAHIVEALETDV
# [10] = molecular target: Protein kinase C zeta type (Homo sapiens, UniProt Q05513); format: functional;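 note: measured as one member of a broad kinase profiling panel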
# [11] = molecular target: MAP kinase-activated protein kinase 3 (Homo sapiens, UniProt Q16644); format: functional;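 note: value comes from a kinome-wide profiling panel in which MAPKAPK3 is one of the panel members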
# [12] = molecular target: Cyclin-dependent kinase 19 (Homo sapiens, UniProt Q9BWU1); assay: Navigating the Kinome. Panel member name: CDC2L6; format: functional
# Cyclin-dependent kinase 19, sequence (Q9BWU1 whole entry): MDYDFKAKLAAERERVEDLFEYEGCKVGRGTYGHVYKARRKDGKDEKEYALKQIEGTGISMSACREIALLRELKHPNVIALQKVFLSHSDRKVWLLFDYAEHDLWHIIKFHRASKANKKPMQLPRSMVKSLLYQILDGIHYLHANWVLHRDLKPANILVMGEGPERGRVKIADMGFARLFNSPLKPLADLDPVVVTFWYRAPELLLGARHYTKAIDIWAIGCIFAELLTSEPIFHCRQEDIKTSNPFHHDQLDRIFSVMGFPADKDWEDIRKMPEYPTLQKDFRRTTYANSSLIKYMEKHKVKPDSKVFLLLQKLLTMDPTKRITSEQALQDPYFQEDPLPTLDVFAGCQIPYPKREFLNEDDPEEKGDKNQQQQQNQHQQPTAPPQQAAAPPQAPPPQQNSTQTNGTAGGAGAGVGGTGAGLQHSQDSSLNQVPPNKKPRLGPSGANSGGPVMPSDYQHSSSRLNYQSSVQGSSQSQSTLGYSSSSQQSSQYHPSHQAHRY
# [13] = molecular target: Cell division cycle 7-related protein kinase (Homo sapiens, UniProt O00311); format: functional;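 note: value obtained from a kinome-wide kinase panel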
# [14] = molecular target: Dual specificity mitogen-activated protein kinase kinase 2 (Homo sapiens, UniProt P36507); assay: Navigating the Kinome. Panel member name: MAP2K2; format: functional
# [15] = molecular target: Leucine-rich repeat serine/threonine-protein kinase 2 (Homo sapiens, UniProt Q5S007); format: functional;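 note: value from a broad kinome-wide panel profiling study in which LRRK2 was one of the kinases tested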
# [16] = molecular target: Macrophage-stimulating protein receptor (Homo sapiens, UniProt Q04912); assay: Navigating the Kinome. Panel member name: MST1R; format: functional
# [17] = molecular target: Serine/threonine-protein kinase D3 (Homo sapiens, UniProt O94806); format: functional;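 note: determined within a kinase panel screen, with PRKCN as the panel member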
# [18] = molecular target: Vascular endothelial growth factor receptor 2 (Homo sapiens, UniProt P35968); format: functional
# [19] = molecular target: Tyrosine-protein kinase Fyn (Homo sapiens, UniProt P06241); format: functional
# [20] = molecular target: Cyclin-dependent kinase 8 (Homo sapiens, UniProt P49336); assay: Navigating the Kinome. Panel member name: CDK8; format: functional
# [21] = molecular target: Dual specificity tyrosine-phosphorylation-regulated kinase 1B (Homo sapiens, UniProt Q9Y463); assay: Navigating the Kinome. Panel member name: DYRK1B; format: functional
# [22] = molecular target: Ribosomal protein S6 kinase alpha-3 (Homo sapiens, UniProt P51812); format: functional;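 note: measured within a kinome-wide profiling panel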
# [23] = molecular target: cAMP-dependent protein kinase catalytic subunit PRKX (Homo sapiens, UniProt P51817); format: functional
# [24] = molecular target: Tyrosine-protein kinase JAK2 (Homo sapiens, UniProt O60674); format: functional;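 note: JAK2 tested as one member of a kinase panel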
# [25] = molecular target: Serine/threonine-protein kinase TAO1 (Homo sapiens, UniProt Q7L7X3); format: functional
# [26] = molecular target: Glycogen synthase kinase-3 beta (Homo sapiens, UniProt P49841); format: functional;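 note: value comes from a broad kinome profiling panel, with GSK3B as the panel member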
# [27] = molecular target: Tyrosine-protein kinase JAK3 (Homo sapiens, UniProt P52333); format: functional
# [28] = molecular target: Tyrosine-protein kinase receptor TYRO3 (Homo sapiens, UniProt Q06418); format: functional;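 note: TYRO3 value obtained as one member of a kinome-wide profiling panel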
# [29] = molecular target: 5'-AMP-activated protein kinase catalytic subunit alpha-1 (Homo sapiens, UniProt Q13131); format: functional
# [30] = molecular target: Macrophage colony-stimulating factor 1 receptor (Homo sapiens, UniProt P07333); format: functional;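 note: value comes from the Navigating the Kinome screening panel, CSF1R member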
# [31] = molecular target: Dual specificity tyrosine-phosphorylation-regulated kinase 1A (Homo sapiens, UniProt Q13627); format: functional;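 note: measured against DYRK1A as one member of a broad kinome profiling panel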
# [32] = molecular target: Dual specificity protein kinase CLK4 (Homo sapiens, UniProt Q9HAZ1); format: functional
# [33] = molecular target: cAMP-dependent protein kinase catalytic subunit alpha (Homo sapiens, UniProt P17612); format: functional
# [34] = molecular target: BDNF/NT-3 growth factors receptor (Homo sapiens, UniProt Q16620); format: functional;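 note: NTRK2 measured as one member of a broad kinome-wide kinase profiling panel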
# [35] = molecular target: Protein kinase C theta type (Homo sapiens, UniProt Q04759); assay: Navigating the Kinome. Panel member name: PRKCQ; format: functional
# [36] = molecular target: Inhibitor of nuclear factor kappa-B kinase subunit epsilon (Homo sapiens, UniProt Q14164); assay: Navigating the Kinome. Panel member name: IKBKE; format: functional
# Inhibitor of nuclear factor kappa-B kinase subunit epsilon, sequence (Q14164 whole entry): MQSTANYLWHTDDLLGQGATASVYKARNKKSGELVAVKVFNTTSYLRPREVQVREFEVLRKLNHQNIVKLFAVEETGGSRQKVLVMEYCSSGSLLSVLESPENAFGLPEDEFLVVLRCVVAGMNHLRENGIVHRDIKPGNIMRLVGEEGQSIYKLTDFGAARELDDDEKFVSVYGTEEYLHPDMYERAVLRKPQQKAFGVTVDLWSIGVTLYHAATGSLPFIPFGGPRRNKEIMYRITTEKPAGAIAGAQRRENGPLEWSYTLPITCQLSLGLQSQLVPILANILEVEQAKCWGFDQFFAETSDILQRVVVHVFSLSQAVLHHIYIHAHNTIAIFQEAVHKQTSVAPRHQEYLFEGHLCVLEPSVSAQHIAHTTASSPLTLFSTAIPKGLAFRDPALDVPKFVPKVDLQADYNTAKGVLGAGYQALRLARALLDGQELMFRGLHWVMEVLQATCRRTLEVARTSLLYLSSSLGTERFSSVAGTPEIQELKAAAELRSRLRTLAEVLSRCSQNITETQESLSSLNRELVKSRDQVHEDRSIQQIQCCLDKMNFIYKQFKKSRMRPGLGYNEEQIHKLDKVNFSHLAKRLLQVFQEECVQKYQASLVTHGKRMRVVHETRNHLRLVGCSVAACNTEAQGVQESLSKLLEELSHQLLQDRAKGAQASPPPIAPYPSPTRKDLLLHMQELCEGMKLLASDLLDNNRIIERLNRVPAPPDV
# [37] = molecular target: Glycogen synthase kinase-3 alpha (Homo sapiens, UniProt P49840); format: functional;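 note: GSK3A result taken from a broad kinome-wide kinase panel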
# [38] = molecular target: Rho-associated protein kinase 1 (Homo sapiens, UniProt Q13464); format: functional;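 note: measured within a broad kinome-wide panel profiling many kinases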
# Rho-associated protein kinase 1, sequence (Q13464 whole entry): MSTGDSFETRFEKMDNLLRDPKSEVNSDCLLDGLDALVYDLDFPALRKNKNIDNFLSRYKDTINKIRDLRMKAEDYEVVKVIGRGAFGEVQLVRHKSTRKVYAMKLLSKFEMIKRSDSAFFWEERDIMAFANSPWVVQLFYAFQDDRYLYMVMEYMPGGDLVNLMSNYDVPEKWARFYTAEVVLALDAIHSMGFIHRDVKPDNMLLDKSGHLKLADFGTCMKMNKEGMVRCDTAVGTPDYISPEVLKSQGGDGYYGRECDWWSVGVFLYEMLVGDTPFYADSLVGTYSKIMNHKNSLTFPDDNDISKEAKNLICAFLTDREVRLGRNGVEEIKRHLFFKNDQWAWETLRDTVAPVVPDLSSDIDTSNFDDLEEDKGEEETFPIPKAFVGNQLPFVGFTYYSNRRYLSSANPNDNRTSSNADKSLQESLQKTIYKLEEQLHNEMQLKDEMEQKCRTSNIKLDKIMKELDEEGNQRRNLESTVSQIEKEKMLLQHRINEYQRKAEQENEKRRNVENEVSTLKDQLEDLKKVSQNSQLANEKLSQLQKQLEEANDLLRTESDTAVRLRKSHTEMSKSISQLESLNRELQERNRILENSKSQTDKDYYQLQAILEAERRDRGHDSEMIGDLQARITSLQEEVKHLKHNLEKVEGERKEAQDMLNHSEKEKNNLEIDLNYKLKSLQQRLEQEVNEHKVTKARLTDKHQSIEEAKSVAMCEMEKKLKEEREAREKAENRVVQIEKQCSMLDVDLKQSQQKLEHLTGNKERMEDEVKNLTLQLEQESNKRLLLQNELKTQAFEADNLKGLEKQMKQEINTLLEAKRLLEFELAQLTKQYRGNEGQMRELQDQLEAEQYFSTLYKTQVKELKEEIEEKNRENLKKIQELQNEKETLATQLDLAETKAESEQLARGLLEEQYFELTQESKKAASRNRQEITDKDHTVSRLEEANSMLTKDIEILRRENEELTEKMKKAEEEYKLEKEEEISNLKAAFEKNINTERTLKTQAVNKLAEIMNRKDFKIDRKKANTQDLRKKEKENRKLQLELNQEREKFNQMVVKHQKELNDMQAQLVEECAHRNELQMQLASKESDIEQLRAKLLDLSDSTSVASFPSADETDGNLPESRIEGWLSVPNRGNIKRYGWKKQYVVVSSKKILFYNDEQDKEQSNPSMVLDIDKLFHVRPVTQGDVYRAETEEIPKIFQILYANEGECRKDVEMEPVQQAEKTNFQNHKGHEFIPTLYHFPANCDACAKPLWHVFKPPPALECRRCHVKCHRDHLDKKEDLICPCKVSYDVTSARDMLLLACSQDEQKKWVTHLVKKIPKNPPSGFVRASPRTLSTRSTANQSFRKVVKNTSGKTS
# [39] = molecular target: Calcium/calmodulin-dependent protein kinase type II subunit alpha (Homo sapiens, UniProt Q9UQM7); assay: Navigating the Kinome. Panel member name: CAMK2A; format: functional
# [40] = molecular target: Vascular endothelial growth factor receptor 1 (Homo sapiens, UniProt P17948); format: functional;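 note: measured within a kinome-wide profiling panel, FLT1 as the panel member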
# [41] = molecular target: G protein-coupled receptor kinase 5 (Homo sapiens, UniProt P34947); assay: Navigating the Kinome. Panel member name: GPRK5; format: functional
# [42] = molecular target: Mitogen-activated protein kinase 9 (Homo sapiens, UniProt P45984); format: functional;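 note: value from a kinome panel profiling assay, MAPK9 panel entry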
# Focal adhesion kinase 1 = Focal adhesion kinase 1 (Homo sapiens, UniProt Q05397); format: functional;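 note: measured as one member of a kinome panel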
# [43] = molecular target: Hepatocyte growth factor receptor (Homo sapiens, UniProt P08581); format: functional;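 note: kinase panel profiling across the kinome, with MET as the panel member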
# [44] = molecular target: Casein kinase I isoform alpha (Homo sapiens, UniProt P48729); format: functional
# [45] = molecular target: Cyclin-dependent kinase 7 (Homo sapiens, UniProt P50613); format: functional;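 note: value comes from a kinome-wide kinase profiling panel in which CDK7 is one member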
# [46] = molecular target: Leukocyte tyrosine kinase receptor (Homo sapiens, UniProt P29376); assay: Navigating the Kinome. Panel member name: LTK; format: functional
# [47] = molecular target: Dual specificity protein kinase CLK2 (Homo sapiens, UniProt P49760); format: functional
# [48] = molecular target: Mitogen-activated protein kinase 14 (Homo sapiens, UniProt Q16539); format: functional;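 note: part of a kinome-wide panel, MAPK14 entry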
# [49] = molecular target: ALK tyrosine kinase receptor (Homo sapiens, UniProt Q9UM73); format: functional;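 note: ALK tested as one member of a kinase panel screen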
# [50] = molecular target: Receptor-type tyrosine-protein kinase FLT3 (Homo sapiens, UniProt P36888); format: functional;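 note: FLT3 was tested as one member of a kinome-wide kinase panel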
# [51] = molecular target: Platelet-derived growth factor receptor alpha (Homo sapiens, UniProt P16234); assay: Navigating the Kinome. Panel member name: PDGFRA; format: functional
# [52] = molecular target: Tyrosine-protein kinase Lck (Homo sapiens, UniProt P06239); format: functional;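 note: lck was assayed as one member of a kinase panel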
# [53] = molecular target: Fibroblast growth factor receptor 1 (Homo sapiens, UniProt P11362); format: functional
# [54] = molecular target: Death-associated protein kinase 3 (Homo sapiens, UniProt O43293); format: functional;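 note: measured as one member of a kinome-wide profiling panel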
# [55] = molecular target: Mitogen-activated protein kinase 8 (Homo sapiens, UniProt P45983); format: functional;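 note: value comes from one member of a kinome-wide kinase profiling panel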
# [56] = molecular target: Serine/threonine-protein kinase pim-1 (Homo sapiens, UniProt P11309); format: functional
# Serine/threonine-protein kinase pim-1, sequence (P11309 whole entry): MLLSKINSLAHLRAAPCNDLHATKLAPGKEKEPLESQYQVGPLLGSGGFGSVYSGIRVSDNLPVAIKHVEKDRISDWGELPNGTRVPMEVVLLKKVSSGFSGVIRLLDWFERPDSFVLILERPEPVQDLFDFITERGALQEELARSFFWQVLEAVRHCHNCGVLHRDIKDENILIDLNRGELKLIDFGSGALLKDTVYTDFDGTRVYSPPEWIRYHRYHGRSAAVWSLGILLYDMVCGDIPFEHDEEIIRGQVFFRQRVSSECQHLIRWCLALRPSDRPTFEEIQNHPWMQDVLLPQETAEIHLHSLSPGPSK
# [57] = molecular target: Proto-oncogene tyrosine-protein kinase receptor Ret (Homo sapiens, UniProt P07949); format: functional;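 note: measured within a kinome-wide profiling panel, RET as the panel member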
# [58] = molecular target: Mitogen-activated protein kinase kinase kinase kinase 2 (Homo sapiens, UniProt Q12851); format: functional;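 note: measured as one member of a kinome-wide kinase panel, with MAP4K2 as the panel entry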
# [59] = molecular target: Dual specificity mitogen-activated protein kinase kinase 1 (Homo sapiens, UniProt Q02750); assay: Navigating the Kinome. Panel member name: MAP2K1; format: functional
# [60] = molecular target: Serine/threonine-protein kinase TBK1 (Homo sapiens, UniProt Q9UHD2); assay: Navigating the Kinome. Panel member name: TBK1; format: functional
# [61] = molecular target: Serine/threonine-protein kinase PAK 4 (Homo sapiens, UniProt O96013); format: functional;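 note: value obtained within a kinome profiling panel in which PAK4 was one of the panel members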
# [62] = molecular target: Tyrosine-protein kinase BTK (Homo sapiens, UniProt Q06187); format: functional
# Activated CDC42 kinase 1 = Activated CDC42 kinase 1 (Homo sapiens, UniProt Q07912); assay: Navigating the Kinome. Panel member name: ACK1; format: functional
# Activin receptor type-1 = Activin receptor type-1 (Homo sapiens, UniProt Q04771); assay: Navigating the Kinome. Panel member name: ACVR1; format: functional
# [63] = molecular target: Insulin-like growth factor 1 receptor (Homo sapiens, UniProt P08069); assay: Navigating the Kinome. Panel member name: IGF1R; format: functional
smiles,measurement,setting,value
O=C(Nc1ccc2nc(-c3cccs3)c(-c3cccs3)nc2c1)NC1CC1,EC50,[1],12300 nM (active)
same,EC50,[2],1500 nM (active)
same,EC50,[3],600 nM (active)
same,EC50,Lethal factor,1600 nM (active)
Oc1ccc(Nc2nc(-c3ccc(Cl)cc3)cs2)cc1,Ki,[4],7940 nM (active)
same,Ki,Misshapen-like kinase 1,2510 nM (active)
same,AC50,Cytochrome P450 3A4,25100 nM (inconclusive)
same,Ki,[5],1000 nM (active)
same,Ki,[6],3160 nM (active)
Oc1cccc(-c2nc(N3CCOCC3)c3oc4ncccc4c3n2)c1 [PI-103],Ki,[7],> 7940 nM (inactive)
same,Ki,[8],> 7940 nM (inactive)
same,Ki,[9],> 10000 nM (inactive)
same,Ki,[10],> 7940 nM (inactive)
same,Ki,[11],> 10000 nM (inactive)
Cn1ncc2cc(Nc3ccnc(N)n3)ccc21,Ki,[12],> 100000 nM (inactive)
same,Ki,[13],398 nM (active)
CC(C)Oc1cc(Nc2nc(NC(C)c3ccc(F)cn3)ncc2Cl)n[nH]1 (stereo not given),Ki,[14],> 3980 nM (inactive)
same,Ki,[15],1000 nM (active)
same,Ki,[16],200 nM (active)
same,Ki,[17],> 3980 nM (inactive)
same,Ki,[18],501 nM (active)
same,Ki,[19],398 nM (active)
same,Ki,[20],> 3980 nM (inactive)
same,Ki,[21],> 2510 nM (inactive)
same,Ki,[22],> 3980 nM (inactive)
same,Ki,[23],> 3160 nM (inactive)
same,Ki,[24],100 nM (active)
same,Ki,[25],2510 nM (active)
same,Ki,[26],> 3980 nM (inactive)
same,Ki,[27],2000 nM (active)
same,Ki,[28],> 3160 nM (inactive)
same,Ki,[29],158 nM (active)
same,Ki,[30],> 2510 nM (inactive)
same,Ki,[31],> 2000 nM (inactive)
same,Ki,[32],501 nM (active)
same,Ki,[33],> 1260 nM (inactive)
same,Ki,[34],1 nM (active)
same,Ki,[35],501 nM (active)
same,Ki,[36],> 3160 nM (inactive)
same,Ki,[37],> 3980 nM (inactive)
same,Ki,[38],2000 nM (active)
same,Ki,[39],316 nM (active)
same,Ki,[40],1580 nM (active)
same,Ki,[41],> 3980 nM (inactive)
same,Ki,[42],> 3980 nM (inactive)
same,Ki,Focal adhesion kinase 1,31.6 nM (active)
same,Ki,[43],> 2510 nM (inactive)
same,Ki,[44],1000 nM (active)
same,Ki,[45],316 nM (active)
same,Ki,[46],31.6 nM (active)
same,Ki,[47],2510 nM (active)
same,Ki,[48],> 3980 nM (inactive)
same,Ki,[49],126 nM (active)
same,Ki,[50],316 nM (active)
same,Ki,[51],> 2510 nM (inactive)
same,Ki,[52],398 nM (active)
same,Ki,[53],25.1 nM (active)
same,Ki,[54],> 5010 nM (inactive)
same,Ki,[55],> 5010 nM (inactive)
same,Ki,[5],> 5010 nM (inactive)
same,Ki,[56],> 6310 nM (inactive)
same,Ki,[57],39.8 nM (active)
same,Ki,[58],> 2510 nM (inactive)
same,Ki,[59],> 3160 nM (inactive)
same,Ki,[60],> 3160 nM (inactive)
same,Ki,[61],> 5010 nM (inactive)
same,Ki,[62],1000 nM (active)
same,Ki,Activated CDC42 kinase 1,25.1 nM (active)
same,Ki,Activin receptor type-1,1580 nM (active)
same,Ki,[63],1260 nM (active)
